In ChEMBL document CHEMBL5331046, “Disulfiram and dithiocarbamate analogues demonstrate promising antischistosomal effects” (Eur J Med Chem, 2022):
Values belong to the compound of their own block, whether it stands above or below them. Activity calls are given as the source filed them. The calls are words filed in the database; no cut-off is given here.

Legend:
Schistosoma mansoni [1] = assay: Antischistosomal activity against Schistosoma mansoni couples assessed as worm motility at 25 uM treated for 72 hrs and measured at 192 hrs after drug wash-out by bright field microscopy; type: functional
Schistosoma mansoni [2] = assay: Antischistosomal activity against Schistosoma mansoni couples assessed as gut dilatations at 10 uM measured upto 72 hrs by bright field microscopy; type: functional, organism-based
Schistosoma mansoni [3] = assay: Antischistosomal activity against Schistosoma mansoni couples assessed as worm motility at 25 uM measured after 72 hrs by bright field microscopy; type: functional
Schistosoma mansoni [4] = assay: Antischistosomal activity against Schistosoma mansoni couples assessed as reduction in parasite motility at <=10 uM measured upto 72 hrs by bright field microscopy; type: functional; parameters: scale not given: the % may be the effect or the level left; details: up to 10 µM
Schistosoma mansoni [5] = assay: Antischistosomal activity against Schistosoma mansoni couples assessed as worm motility at 50 uM treated for 72 hrs and measured at 144 hrs after drug wash-out by bright field microscopy; type: functional
Schistosoma mansoni [6] = assay: Antischistosomal activity against Schistosoma mansoni couples assessed as worm motility at 50 uM measured after 72 hrs by bright field microscopy; type: functional
Schistosoma mansoni [7] = assay: Antischistosomal activity against Schistosoma mansoni couples assessed as inhibition of eggs production at 15 uM measured upto 72 hrs by bright field microscopy; type: functional; parameters: scale not given: the % may be the effect or the level left
Schistosoma mansoni [8] = assay: Antischistosomal activity against Schistosoma mansoni couples assessed as decrease in parasite motility at 15 uM measured upto 72 hrs by bright field microscopy; type: functional; parameters: scale not given: the % may be the effect or the level left
Schistosoma mansoni [9] = assay: Antischistosomal activity against Schistosoma mansoni couples assessed as loss of internal structures at <=10 uM measured upto 72 hrs by bright field microscopy; type: functional, organism-based
Schistosoma mansoni [10] = assay: Antischistosomal activity against Schistosoma mansoni couples assessed as decrease in parasite vitality at 15 uM measured upto 72 hrs by bright field microscopy; type: functional; parameters: scale not given: the % may be the effect or the level left
Schistosoma mansoni [11] = assay: Antischistosomal activity against Schistosoma mansoni couples assessed as induction of phenotypes at 10 uM measured upto 72 hrs by bright field microscopy; type: functional, organism-based
Schistosoma mansoni [12] = assay: Antischistosomal activity against Schistosoma mansoni couples assessed as tegument damage at <=10 uM measured upto 72 hrs by bright field microscopy; type: functional, organism-based
Schistosoma mansoni [13] = assay: Antischistosomal activity against Schistosoma mansoni couples assessed as reduction in pairing stability measured up to 72 hrs by bright field microscopy; type: functional, organism-based
Schistosoma mansoni [14] = assay: Antischistosomal activity against Schistosoma mansoni couples assessed as gut dilatations at <=10 uM measured upto 72 hrs by bright field microscopy; type: functional, organism-based
Schistosoma mansoni [15] = assay: Antischistosomal activity against Schistosoma mansoni couples assessed as reduction in worm motility measured up to 72 hrs by bright field microscopy; type: functional, organism-based
Schistosoma mansoni [16] = assay: Antischistosomal activity against Schistosoma mansoni couples assessed as decrease in pairing stability at 15 uM measured upto 72 hrs by bright field microscopy; type: functional; parameters: scale not given: the % may be the effect or the level left
Schistosoma mansoni [17] = assay: Antischistosomal activity against Schistosoma mansoni couples assessed as worm motility at 100 uM treated for 72 hrs and measured at 192 hrs after drug wash-out by bright field microscopy; type: functional
Schistosoma mansoni [18] = assay: Antischistosomal activity against Schistosoma mansoni couples assessed as tegument damage at 10 uM measured upto 72 hrs by bright field microscopy; type: functional, organism-based
Schistosoma mansoni [19] = assay: Antischistosomal activity against Schistosoma mansoni couples assessed as worm motility at 50 uM treated for 72 hrs and measured at 192 hrs after drug wash-out by bright field microscopy; type: functional
Schistosoma mansoni [20] = assay: Antischistosomal activity against Schistosoma mansoni couples assessed as worm motility at 100 uM treated for 72 hrs and measured at 144 hrs after drug wash-out by bright field microscopy; type: functional
HepG2 = assay: Cytotoxicity against human HepG2 cells assessed as reduction in cell vaibility at 100 uM by WST-1 assay; type: toxicity, cell-based; details: hepg2, 100 µM
Schistosoma mansoni [21] = assay: Antischistosomal activity against Schistosoma mansoni couples assessed as loss of internal structures at 10 uM measured upto 72 hrs by bright field microscopy; type: functional, organism-based
LS174T = assay: Cytotoxicity against human LS174T cells assessed as reduction in cell viability at 100 uM by WST-1 assay; type: toxicity, cell-based
Schistosoma mansoni [22] = assay: Antischistosomal activity against Schistosoma mansoni couples assessed as worm motility at 100 uM measured after 72 hrs by bright field microscopy; type: functional
Schistosoma mansoni [23] = assay: Antischistosomal activity against Schistosoma mansoni couples assessed as decrease in parasite motility at 10 uM measured upto 72 hrs by bright field microscopy; type: functional, organism-based
Schistosoma mansoni [24] = assay: Antischistosomal activity against Schistosoma mansoni couples assessed as worm motility at 25 uM treated for 72 hrs and measured at 144 hrs after drug wash-out by bright field microscopy; type: functional
Schistosoma mansoni [25] = assay: Antischistosomal activity against Schistosoma mansoni infected in mouse assessed as mouse mortality; type: functional
Schistosoma mansoni [26] = assay: Antischistosomal activity against Schistosoma mansoni couples assessed as reduction in pairing stability at 25 to 100 uM treated for 72 hrs and measured at 144 to 192 hrs after drug wash-out by bright field microscopy; type: functional, organism-based; details: dose 25-100 µM
Schistosoma mansoni [27] = assay: Antischistosomal activity against Schistosoma mansoni infected in mouse assessed as decrease in granuloma formation; type: functional; parameters: scale not given: the % may be the effect or the level left

EC50 (Schistosoma mansoni [13]): 9.2 µM
EC50 (Schistosoma mansoni [15]): 9.6 µM
SMILES: CS(=O)(=O)N1CCN(C(=S)SCc2ccc([N+](=O)[O-])cc2)CC1
Activity (Schistosoma mansoni [1]): 35%
Activity (Schistosoma mansoni [2]): Active
Activity (Schistosoma mansoni [3]): 35%
Activity (Schistosoma mansoni [4]): 50%
Activity (Schistosoma mansoni [5]): 27%
Activity (Schistosoma mansoni [6]): 31%
Activity (Schistosoma mansoni [7]): 40%
Activity (Schistosoma mansoni [8]): 50%
Activity (Schistosoma mansoni [9]): inactive
Activity (Schistosoma mansoni [10]): 90%
Activity (Schistosoma mansoni [11]): Active
Activity (Schistosoma mansoni [12]): inactive
Activity (Schistosoma mansoni [14]): inactive
Activity (Schistosoma mansoni [16]): 20%
Activity (Schistosoma mansoni [17]): 24%
Activity (Schistosoma mansoni [18]): Active
Activity (Schistosoma mansoni [19]): 28%
Activity (Schistosoma mansoni [20]): 24%
Activity (HepG2): Non-Toxic
Activity (Schistosoma mansoni [21]): Active
Activity (LS174T): Non-Toxic
Activity (Schistosoma mansoni [22]): 31%
Activity (Schistosoma mansoni [23]): Active
Activity (Schistosoma mansoni [24]): 36%

SMILES: CCN(CC)C(=S)SSC(=S)N(CC)CC [DISULFIRAM]
Activity (Schistosoma mansoni [1]): 67%
Activity (Schistosoma mansoni [3]): 69%
Activity (Schistosoma mansoni [5]): 75%
Activity (Schistosoma mansoni [6]): 62%
Activity (Schistosoma mansoni [25]): 60%
Activity (Schistosoma mansoni [26]): inactive
Activity (Schistosoma mansoni [27]): 80%
Activity (Schistosoma mansoni [17]): 76%
Activity (Schistosoma mansoni [19]): 84%
Activity (Schistosoma mansoni [20]): 71%
Activity (Schistosoma mansoni [22]): 56%
Activity (Schistosoma mansoni [24]): 73%
